From article PMC11866186, “Novel Benzimidazole–Oxadiazole Derivatives as Anticancer Agents with VEGFR2 Inhibitory Activity: Design, Synthesis, In Vitro Anticancer Evaluation, and In Silico Studies” (ACS Omega, 2025)
Where two headings read alike, the source gives them in different places.

Legend:
hTERT-HPNE cell line = test: MTT assay, normal pancreas hTERT-HPNE cells; format: cell-based; conditions: normal human pancreas cells, 24 h, read-out: IC50 against hTERT-HPNE
Protocol: (§1) By comparing the compounds’ cytotoxic effects against tumor cell lines and normal cell lines, the drug safety parameter for the anticancer activity of the compounds was evaluated, thereby confirming their cytoprotective qualities. In this study, normal human lung (CCD-19Lu) and normal human pancreas (hTERT-HPNE) cell lines were used as controls. The selectivity index (SI) calculated for the compounds tested scales the IC50 values of the compounds against various tumor cell lines with the IC50 values against normal cell lines (Table 2). […] The differential selectivity indices underscore the importance of targeted therapeutic strategies and the potential for these compounds to provide selective anticancer effects with reduced toxicity to normal cells.
(§2) Many analyses are performed to determine cell proliferation. MTT analysis is one of the viability determination tests. According to the working mechanism of the method, the dye containing the tetrazolium ring reacts with the dehydrogenase enzymes in the cells, only to be reduced and broken down by the metabolic cells, turning into water-insoluble formazan crystals. Color changes associated with mitochondrial activity and resulting from the addition of a solvent as a result of the reaction are measured in the microplate reader as optical density data values.[30] Cells were planted in flat-bottomed, 96-well, sterile, lidded, disposable microplates with 1 × 10^4 cells per well in 200 μL of appropriate medium and were allowed to adhere to the plate bottom by incubating for 24 h. At the end of 24 h, 100 μL of medium was withdrawn, and test substances at different concentrations, prepared in 100 μL, were added. Following the substance application, after a 24 h incubation period, 20 μL of stock MTT solution (MTT solution dissolved in 5 mg/mL PBS and filtered before application) was added to each well and protected from light, and the incubation continued for 3 h. Then, the media of the cells were completely withdrawn, and 100 μL of DMSO was added to dissolve the formazan crystals. After shaking in the dark for 15 min, the optical densities (absorbance) of the color changes at 540–570 and 650 nm reference wavelengths were read in the microplate reader. The data were calculated and created in Microsoft Office Excel. For this purpose, first, the blind well value and the control groups of colored substances were removed from the optical readings. The averages of optical densities and % viability values were made from Excel formula calculations, and the results were discussed. The viability of the control group was assumed to be 100%, and all other viability values were calculated based on this (series were run in n = 5 replicates).

CCD-19Lu cell line = test: MTT assay, normal lung CCD-19Lu cells; format: cell-based; conditions: normal human lung cells, 24 h, read-out: IC50 against CCD-19Lu
Protocol: as §1, §2

PANC-1 cell line = test: MTT assay, PANC-1 cells; format: cell-based, human; conditions: MTT, 24 h, read-out: IC50 against PANC-1
Protocol: Cisplatin was used as a reference drug. […] There are hydroxyl and methoxy substituents on the phenyl ring attached to the benzimidazole. It has also been derivatized using different groups on the phenyl ring close to oxadiazole.
as §2

MCF-7 cell line = test: MTT assay, MCF-7 cells; format: cell-based, human; conditions: read-out: IC50 against MCF-7
Protocol: (§3) The synthesized compounds 4a–4s were screened for their in vitro anticancer activity via the standard MTT assay using three human tumor cell lines, namely, the human lung adenocarcinoma cell line (A549), the human breast cancer cell line (MCF-7), and the human pancreas cell line (PANC-1). Cisplatin was used as a reference drug. […] When the structures of the compounds are evaluated, it is seen that the compounds are derived from two different sources. There are hydroxyl and methoxy substituents on the phenyl ring attached to the benzimidazole. It has also been derivatized using different groups on the phenyl ring close to oxadiazole. When the activities in the PANC-1 cell line are evaluated, it is seen that the activity of compounds bearing the 2,4-dichloro substituent is especially high.
as §2

A549 cell line = test: MTT assay, A549 cells; format: cell-based, human; conditions: MTT, 24 h, read-out: IC50 against A549
Protocol: as §3, §2

Row | Compound | IC50 (PANC-1 cell line; Homo sapiens, PANC-1, 24 h) [µM] | IC50 (MCF-7 cell line; Homo sapiens, MCF7, 24 h) [µM] | IC50 (A549 cell line; Homo sapiens, A549) [µM] | IC50 (PANC-1 cell line) [µM] | IC50 (MCF-7 cell line; 24 h) [µM] | IC50 (A549 cell line) [µM] | IC50 (hTERT-HPNE cell line) [µM] | IC50 (CCD-19Lu cell line; CCD 19Lu) [µM] | IC50 (CCD-19Lu cell line) [µM]
1 | 2-((5-(2-(4-Hydroxyphenyl)-1H-benzimidazol-6-yl)-1,3,4-oxadiazol-2-yl)thio)-1-(4-methylphenyl)-ethanone [4b] | – | – | – | 33.1 | 17.4 | 5.1 | 86.8 | – | 40.3
2 | O=C(CSc1nnc(-c2ccc3nc(-c4ccc(O)cc4)[nH]c3c2)o1)c1ccc(Cl)cc1Cl [4h, 2-((5-(2-(4-Hydroxyphenyl)-1H-benzimidazol-6-yl)-1,3,4-oxadiazol-2-yl)thio)-1-(2,4-dichlorophenyl)-ethanone] | 26.7 | 15.7 | 14.6 | – | – | – | 32.9 | 30.3 | –
3 | COc1ccc(-c2nc3ccc(-c4nnc(SCC(=O)c5ccccc5)o4)cc3[nH]2)cc1 [4j, 2-((5-(2-(4-Methoxyphenyl)-1H-benzimidazol-6-yl)-1,3,4-oxadiazol-2-yl)thio)-1-phenyl-ethanone] | 95.7 | 53.7 | 99.1 | – | – | – | 93.6 | 95.2 | –
4 | O=C(CSc1nnc(-c2ccc3nc(-c4ccc(O)cc4)[nH]c3c2)o1)c1ccc(F)cc1 [4d, 2-((5-(2-(4-Hydroxyphenyl)-1H-benzimidazol-6-yl)-1,3,4-oxadiazol-2-yl)thio)-1-(4-florophenyl)-ethanone] | 33.3 | 10.1 | 10.3 | – | – | – | 6.8 | 5.2 | –
5 | COc1ccc(-c2nc3ccc(-c4nnc(SCC(=O)c5ccc(Cl)cc5)o4)cc3[nH]2)cc1 [4l, 2-((5-(2-(4-Methoxyphenyl)-1H-benzimidazol-6-yl)-1,3,4-oxadiazol-2-yl)thio)-1-(4-chlorophenyl)-ethanone] | 42.1 | 22.6 | 49.1 | – | – | – | 19.5 | 47.8 | –
6 | O=C(CSc1nnc(-c2ccc3nc(-c4ccc(O)cc4)[nH]c3c2)o1)c1ccc(O)c(O)c1 [4i, 2-((5-(2-(4-Hydroxyphenyl)-1H-benzimidazol-6-yl)-1,3,4-oxadiazol-2-yl)thio)-1-(3,4-dihydroxyphenyl)-ethanone] | 23.8 | 16.5 | 21.1 | – | – | – | 10.1 | 13.9 | –
7 | N.N.[Cl][Pt][Cl] [cisplatin, reference compound] | – | – | – | 28.8 | 14.7 | 19.7 | 30.6 | – | 22.6
8 | COc1ccc(-c2nc3ccc(-c4nnc(SCC(=O)c5ccc(Br)cc5)o4)cc3[nH]2)cc1 [4n, 2-((5-(2-(4-Methoxyphenyl)-1H-benzimidazol-6-yl)-1,3,4-oxadiazol-2-yl)thio)-1-(4-bromophenyl)-ethanone] | 29.5 | 28.9 | 19.6 | – | – | – | 36.2 | 36.8 | –
9 | COc1ccc(-c2nc3ccc(-c4nnc(SCC(=O)c5ccc(C#N)cc5)o4)cc3[nH]2)cc1 [4o, 2-((5-(2-(4-Methoxyphenyl)-1H-benzimidazol-6-yl)-1,3,4-oxadiazol-2-yl)thio)-1-(4-cyanophenyl)-ethanone] | 70.9 | 49.2 | 65.2 | – | – | – | 64.2 | 48.4 | –
10 | N#Cc1ccc(C(=O)CSc2nnc(-c3ccc4nc(-c5ccc(O)cc5)[nH]c4c3)o2)cc1 [4f, 2-((5-(2-(4-Hydroxyphenyl)-1H-benzimidazol-6-yl)-1,3,4-oxadiazol-2-yl)thio)-1-(4-cyanophenyl)-ethanone] | 60.4 | 45.6 | 50.7 | – | – | – | 74.9 | 68.8 | –

Second part, led by results:

Row | IC50 (PANC-1 cell line; Homo sapiens, PANC-1, 24 h) [µM] | IC50 (MCF-7 cell line; Homo sapiens, MCF7, 24 h) [µM] | IC50 (A549 cell line; Homo sapiens, A549) [µM] | IC50 (PANC-1 cell line) [µM] | IC50 (MCF-7 cell line; 24 h) [µM] | IC50 (A549 cell line) [µM] | Compound | IC50 (hTERT-HPNE cell line) [µM] | IC50 (CCD-19Lu cell line; CCD 19Lu) [µM] | IC50 (CCD-19Lu cell line) [µM]
11 | 36.6 | 30.7 | 16.8 | – | – | – | O=C(CSc1nnc(-c2ccc3nc(-c4ccc(O)cc4)[nH]c3c2)o1)c1ccc(F)cc1F [4g, 2-((5-(2-(4-Hydroxyphenyl)-1H-benzimidazol-6-yl)-1,3,4-oxadiazol-2-yl)thio)-1-(2,4-diflorophenyl)-ethanone] | 17.1 | 31.8 | –
12 | 17.7 | 6.1 | 6.3 | – | – | – | O=C(CSc1nnc(-c2ccc3nc(-c4ccc(O)cc4)[nH]c3c2)o1)c1ccc(Cl)cc1 [4c, 2-((5-(2-(4-Hydroxyphenyl)-1H-benzimidazol-6-yl)-1,3,4-oxadiazol-2-yl)thio)-1-(4-chlorophenyl)-ethanone] | 21.5 | 16.3 | –
13 | 41.1 | 36.9 | 25.3 | – | – | – | COc1ccc(-c2nc3ccc(-c4nnc(SCC(=O)c5ccc(F)cc5)o4)cc3[nH]2)cc1 [4m, 2-((5-(2-(4-Methoxyphenyl)-1H-benzimidazol-6-yl)-1,3,4-oxadiazol-2-yl)thio)-1-(4-florophenyl)-ethanone] | 28.6 | 20.2 | –
14 | 42.2 | 39.5 | 63.2 | – | – | – | O=C(CSc1nnc(-c2ccc3nc(-c4ccc(O)cc4)[nH]c3c2)o1)c1ccccc1 [4a, 2-((5-(2-(4-Hydroxyphenyl)-1H-benzimidazol-6-yl)-1,3,4-oxadiazol-2-yl)thio)-1-phenyl-ethanone] | 26.2 | 46.1 | –
15 | 83.8 | 95.2 | 96.1 | – | – | – | O=C(CSc1nnc(-c2ccc3nc(-c4ccc(O)cc4)[nH]c3c2)o1)c1ccc(Br)cc1 [4e, 2-((5-(2-(4-Hydroxyphenyl)-1H-benzimidazol-6-yl)-1,3,4-oxadiazol-2-yl)thio)-1-(4-bromophenyl)-ethanone] | 11.3 | 95.3 | –
16 | – | – | – | 82 | 50.2 | 74.7 | 2-((5-(2-(4-Methoxyphenyl)-1H-benzimidazol-6-yl)-1,3,4-oxadiazol-2-yl)thio)-1-(4-methylphenyl)-ethanone [4k] | 29.3 | – | 90.4
17 | 32.6 | 37.1 | 14.9 | – | – | – | COc1ccc(-c2nc3ccc(-c4nnc(SCC(=O)c5ccc(F)cc5F)o4)cc3[nH]2)cc1 [4p, 2-((5-(2-(4-Methoxyphenyl)-1H-benzimidazol-6-yl)-1,3,4-oxadiazol-2-yl)thio)-1-(2,4-diflorophenyl)-ethanone] | 20.4 | 14.7 | –
